Read-outs that look alike come from different tables or passages of the source.
Assays:
in vitro [1] = conditions: human, hepatocytes
Source text: (§1) 5-hydroxy-omeprazole was quantified using LC-MS/MS.

[2] = tested on: human cryopreserved hepatocytes; test: in vitro; conditions: for % Σ Clint rac. Omeprazole: hepatocytes
Source text: as §1

[3] = tested on: human cryopreserved hepatocytes
Experimental: (§3) Following the evaluation of the metabolic clearance of the compounds according to the invention via P450 enzymes, the formation kinetics of the main metabolite identified in humans, i.e. M2 (5-(difluoromethoxy)-2-[[(3-methoxy-4-sulfate-2-pyridyl)-methyl]sulfinyl]-1H-benzimidazole) was determined. Because the generation of M2 involves the oxidation of the 4-methoxy-pyridyl group by CYP2C19 and subsequent conjugation with 3′-phosphoadenosine-5′-phosphosulfate (PAPS) by an unidentified sulphotransferase, human cryopreserved hepatocytes were used since both phase I and phase II enzymes are functional in this in vitro system.
(§4) M2 formation rate under these conditions was linear up to 60 min. The M2 formation rate was determined at nine different compound concentrations (0, 0.5, 1.0, 2.5, 5.0, 10.0, 25.0, 50.0 and 100 μMol/L) incubated in duplicate for 60 min at 37° C. M2 was quantified using LC-MS/MS. M2 isolated from human urine was used as an external standard. The concentration to reach the half-maximal formation rate (KM-value) and the maximal formation rate (Vmax) were obtained by non-linear regression analysis using the Michaelis-Menten equation. The intrinsic clearance (Clint) was obtained dividing Vmax over KM.

[4] = Metabolisation in liver microsomes (rat); assay type: in vitro ADME; conditions: for Percent of compound metabolized: 10 μM, 90 minutes incubation; for Ratio of percent metabolized, Example/Pantoprazole: 90 minutes
Experimental: (§2) Pantoprazole or examples 1 or 2 (10 μM each) were incubated with liver microsomes (source: all from GenTest except Mini Pig from TEBU),incubation in 1 mg/ml protein, 100 mM Tris-HCl, pH 7.4, 1 mM NADPH2). Reaction was terminated after 90 minutes by liquid nitrogen, the parent compound was detected by HPLC (10 mM KH2PO4, pH 7.4, acetonitril gradient 20-44%).

[5] = Metabolisation in liver microsomes (dog); assay type: in vitro ADME; conditions: for Percent of compound metabolized: 10 μM, 90 minutes incubation; for Ratio of percent metabolized, Example/Pantoprazole: 90 minutes
Experimental: as §2

[6] = Metabolisation in liver microsomes (human); assay type: in vitro ADME; conditions: for Percent of compound metabolized: 10 μM, 90 minutes incubation; for Ratio of percent metabolized, Example/Pantoprazole: 90 minutes
Experimental: as §2

[7] = Metabolisation in liver microsomes (mouse); assay type: in vitro ADME; conditions: for Percent of compound metabolized: 10 μM, 90 minutes incubation; for Ratio of percent metabolized, Example/Pantoprazole: 90 minutes
Experimental: as §2

[8] = Metabolisation in liver microsomes (guinea pig); assay type: in vitro ADME; conditions: Guinee pig liver microsomes; for Percent of compound metabolized: 10 μM, 90 minutes incubation; for Ratio of percent metabolized, Example/Pantoprazole: 90 minutes
Experimental: as §2

[9] = Metabolisation in liver microsomes (monkey); assay type: in vitro ADME; conditions: for Percent of compound metabolized: 10 μM, 90 minutes incubation; for Ratio of percent metabolized, Example/Pantoprazole: 90 minutes
Experimental: as §2

[10] = Metabolisation in liver microsomes (mini pig); assay type: in vitro ADME; conditions: for Percent of compound metabolized: 10 μM, 90 minutes incubation; for Ratio of percent metabolized, Example/Pantoprazole: 90 minutes
Experimental: as §2

in vitro [11] = conditions: human, hepatocytes; remark: listed apart in the source
Experimental: as §3, §4

[12] = Table 2, relative to rac. pantoprazole
[13] = Table 3, relative to rac. pantoprazole
[14] = Table 3, pooled human hepatocytes, M2 formation, Vmax over KM

[2H]C([2H])([2H])Oc1c(C)cnc(C[S+]([O-])c2nc3cc(OC)ccc3[nH]2)c1C (racemic) [Example 48, rac-5-Methoxy-2-[(3,5-dimethyl-4-trideuteriomethoxy-2-pyridinyl)methylsulfinyl]-1H-benzimidazole]
hepatocyte CLint (in vitro [1]): 1.4 µL/min/1e6 cells | 5-hydroxy-omeprazole formation rate, reduction compared to non-deuterated omeprazole ([2]; human, 60 min): about 1.5 fold | Reduction in the 5-hydroxy-omeprazole formation rate ([2]; human, 60 min): Reduction in the 5-hydroxy-omeprazole formation rate was observed | % Σ Clint rac. Omeprazole ([2]; human): 69%

[2H]C([2H])([2H])Oc1ccnc(C[S@+]([O-])c2nc3cc(OC(F)F)ccc3[nH]2)c1OC [Example 5, Sodium (S)-{[5-(difluoromethoxy)]-2-[(3-methoxy-4-trideuteriomethoxy-2-pyridinyl)methylsulphinyl]-1H-benzimidazolide} hydrate]
% Σ Clint (S)-pantoprazole ([3]; Table 2, relative to (S)-pantoprazole): 21%

[2H]C([2H])([2H])Oc1ccnc(C[S+]([O-])c2nc3cc(OC(F)F)ccc3[nH]2)c1OC (racemic) [Example 1, (R/S)-5-Difluoromethoxy-2-[(3-methoxy-4-trideuteriomethoxy-2-pyridinyl)methylsulfinyl]-1H-benzimidazole]
Percent of compound metabolized [4]: 35% | Ratio of percent metabolized, Example/Pantoprazole [4]: 0.57 | Percent of compound metabolized [5]: 12% | Ratio of percent metabolized, Example/Pantoprazole [5]: 0.60 | Percent of compound metabolized [6]: 14% | Ratio of percent metabolized, Example/Pantoprazole [6]: 0.50 | Percent of compound metabolized [7]: 36% | Ratio of percent metabolized, Example/Pantoprazole [7]: 0.58 | Percent of compound metabolized [8]: 59% | Ratio of percent metabolized, Example/Pantoprazole [8]: 0.75 | Percent of compound metabolized [9]: 47% | Ratio of percent metabolized, Example/Pantoprazole [9]: 0.64 | Percent of compound metabolized [10]: 19% | Ratio of percent metabolized, Example/Pantoprazole [10]: 0.73

Sodium (R/S)-{[5-(difluoromethoxy)]-2-[(3-methoxy-4-trideuteriomethoxy-2-pyridinyl)methylsulphinyl]-1H-benzimidazolide} hydrate [Example 6]
Intrinsic clearance (Clint) ([3]; Table 2, pooled human hepatocytes, M2 formation, Vmax over KM): 5.1 μl/min/10^6 cells | % Σ Clint rac. pantoprazole [3, 12]: 20% | Effect of increasing number of [2H] atoms in the 4-methoxy-pyridyl position on M2 formation rates ([3]; series [1H], [2H1], [2H2], [2H3]): decreased M2 formation rates

COc1ccnc(C[S+]([O-])c2nc3ccc(OC(F)F)cc3[nH]2)c1OC (racemic) [rac. pantoprazole Na 1.5 H2O, 5-difluoromethoxy-2-[(3,4-dimethoxy-2-pyridinyl)methylsulphinyl]-1H-benzimidazole, reference compound]
% Σ Clint rac. Pantoprazole ([3]; human, hepatocytes): 100% | % Σ Clint rac. pantoprazole ([3]; human, hepatocytes): 100% | Intrinsic clearance (Clint) ([3]; human, hepatocytes): 27.9 μl/min/10^6 cells | hepatocyte CLint (in vitro [11]): 27.9 µL/min/1e6 cells

[2H]C([2H])([2H])Oc1ccc2[nH]c([S+]([O-])Cc3ncc(C)c(OC([2H])([2H])[2H])c3C)nc2c1 (racemic) [Example 47, rac-5-Trideuteriomethoxy-2-[(3,5-dimethyl-4-trideuteriomethoxy-2-pyridinyl)methylsulfinyl]-1H-benzimidazole]
hepatocyte CLint (in vitro [1]): 1.4 µL/min/1e6 cells | 5-hydroxy-omeprazole formation rate, reduction compared to non-deuterated omeprazole ([2]; human, 60 min): about 1.5 fold | % Σ Clint rac. Omeprazole ([2]; human): 69%

COc1ccnc(C[S@+]([O-])c2nc3cc(OC(F)F)ccc3[n-]2)c1OC.COc1ccnc(C[S@+]([O-])c2nc3cc(OC(F)F)ccc3[n-]2)c1OC.O.O.O.[Na+].[Na+] [(S)-pantoprazole Na 1.5 H2O, reference compound]
% Σ Clint (S)-pantoprazole ([3]; human, hepatocytes): 100% | Intrinsic clearance (Clint) ([3]; human, hepatocytes): 16.1 μl/min/10^6 cells

[2H]C([2H])([2H])Oc1c(OC)ccnc1C[S+]([O-])c1nc2cc(OC(F)F)ccc2[nH]1 (racemic) [Example 22, rac-5-Difluoromethoxy-2-[(4-methoxy-3-trideuteriomethoxy-2-pyridinyl)methylsulfinyl]-1H-benzimidazole]
Substrate concentrations at which formation of M2 appeared to be inhibited ([3]; human, 60 min): above 100 μM | % Σ Clint rac. Pantoprazole ([3]; human, hepatocytes): 79% | % Σ Clint rac. pantoprazole ([3]; human, hepatocytes): 79% | Intrinsic clearance (Clint) ([3]; human, hepatocytes): 22.0 μl/min/10^6 cells | hepatocyte CLint (in vitro [11]): 22 µL/min/1e6 cells

COc1ccc2nc([S@@+]([O-])Cc3ncc(C)c(OC)c3C)[nH]c2c1 [(S)-omeprazole sodium, (S)-5-methoxy-2-[(4-methoxy-3,5-dimethyl-2-pyridinyl)methylsulphinyl]-1H-benzimidazole, reference compound]
hepatocyte CLint (in vitro [1]): 0.7 µL/min/1e6 cells | % Σ Clint rac. Omeprazole ([2]; human): 37%

O.[2H]C([2H])([2H])Oc1ccnc(C[S+]([O-])c2nc3cc(OC(F)F)ccc3[nH]2)c1OC.[Na] (racemic) [Example 32, rac-5-Difluoromethoxy-2-[(3-methoxy-4-trideuteriomethoxy-2-pyridinyl)methylsulfinyl]-1H-benzimidazole sodium salt mono hydrate]
% Σ Clint rac. Pantoprazole [3, 13]: 18% | hepatocyte CLint (in vitro [11]): 5.1 µL/min/1e6 cells

[2H]C([2H])([2H])Oc1ccc2[nH]c([S@@+]([O-])Cc3ncc(C)c(OC([2H])([2H])[2H])c3C)nc2c1.[Na] [Example 49, (S)-5-Trideuteriomethoxy-2-[(3,5-dimethyl-4-trideuteriomethoxy-2-pyridinyl)methylsulfinyl]-1H-benzimidazole sodium salt]
hepatocyte CLint (in vitro [1]): 0.8 µL/min/1e6 cells | Change of intrinsic clearance (Clint) of 5-hydroxy-omeprazole [2]: did not alter the intrinsic clearance | % Σ Clint rac. Omeprazole ([2]; human): 40%

O.[2H]COc1ccnc(C[S+]([O-])c2nc3cc(OC(F)F)ccc3[nH]2)c1OC.[Na] (racemic) [Example 25, rac-5-Difluoromethoxy-2-[(3-methoxy-4-monodeuteriomethoxy-2-pyridinyl)methylsulfinyl]-1H-benzimidazole sodium salt mono hydrate]
% Σ Clint rac. pantoprazole [3, 12]: 63% | Intrinsic clearance (Clint) [3, 14]: 17.7 μl/min/10^6 cells | % Σ Clint rac. Pantoprazole [3, 13]: 63% | hepatocyte CLint (in vitro [11]): 17.7 µL/min/1e6 cells

O.[2H]C([2H])Oc1ccnc(C[S+]([O-])c2nc3cc(OC(F)F)ccc3[nH]2)c1OC.[Na] (racemic) [Example 24, rac-5-Difluoromethoxy-2-[(3-methoxy-4-dideuteriomethoxy-2-pyridinyl)methylsulfinyl]-1H-benzimidazole sodium salt mono hydrate]
% Σ Clint rac. pantoprazole [3, 12]: 48% | Intrinsic clearance (Clint) [3, 14]: 13.5 μl/min/10^6 cells | % Σ Clint rac. Pantoprazole [3, 13]: 48% | hepatocyte CLint (in vitro [11]): 13.5 µL/min/1e6 cells

COc1ccnc(C[S@@+]([O-])c2nc3cc(OC(F)F)ccc3[n-]2)c1OC.COc1ccnc(C[S@@+]([O-])c2nc3cc(OC(F)F)ccc3[n-]2)c1OC.O.O.O.[Na+].[Na+] [(R)-pantoprazole Na 1.5 H2O, reference compound]
% Σ Clint (R)-pantoprazole ([3]; human, hepatocytes): 100% | Intrinsic clearance (Clint) ([3]; human, hepatocytes): 25.7 μl/min/10^6 cells

[2H]C([2H])([2H])Oc1ccnc(C[S@+]([O-])c2nc3cc(OC(F)F)ccc3[nH]2)c1OC.[Na] [Example 36, (S)-5-Difluoromethoxy-2-[(3-methoxy-4-trideuteriomethoxy-2-pyridinyl)methylsulfinyl]-1H-benzimidazole sodium salt]
% Σ Clint (S)-pantoprazole ([3]; Table 3, relative to (S)-pantoprazole): 21% | hepatocyte CLint (in vitro [11]): 3.4 µL/min/1e6 cells

[2H]C([2H])([2H])Oc1ccc2[nH]c([S+]([O-])Cc3ncc(C)c(OC)c3C)nc2c1 (racemic) [Example 46, rac-5-Trideuteriomethoxy-2-[(4-methoxy-3,5-dimethyl-2-pyridinyl)methylsulfinyl]-1H-benzimidazole]
hepatocyte CLint (in vitro [1]): 2.1 µL/min/1e6 cells | Reduction in the 5-hydroxy-omeprazole formation rate [2]: not found | % Σ Clint rac. Omeprazole ([2]; human): 107%

[2H]C([2H])([2H])Oc1ccnc(C[S@+]([O-])c2nc3cc(OC(F)F)ccc3[nH]2)c1OC [Example 2, (S)(−)-5-Difluoromethoxy-2-[(3-methoxy-4-trideuteriomethoxy-2-pyridinyl)methylsulfinyl]-1H-benzimidazole]
Percent of compound metabolized [4]: 17% | Ratio of percent metabolized, Example/Pantoprazole [4]: 0.28 | Percent of compound metabolized [5]: 10% | Ratio of percent metabolized, Example/Pantoprazole [5]: 0.50 | Percent of compound metabolized [6]: 15% | Ratio of percent metabolized, Example/Pantoprazole [6]: 0.54 | Percent of compound metabolized [7]: 17% | Ratio of percent metabolized, Example/Pantoprazole [7]: 0.27 | Percent of compound metabolized [8]: 54% | Ratio of percent metabolized, Example/Pantoprazole [8]: 0.69 | Percent of compound metabolized [9]: 35% | Ratio of percent metabolized, Example/Pantoprazole [9]: 0.48 | Percent of compound metabolized [10]: 19% | Ratio of percent metabolized, Example/Pantoprazole [10]: 0.73

[2H]C([2H])([2H])Oc1ccnc(C[S@@+]([O-])c2nc3cc(OC(F)F)ccc3[nH]2)c1OC.[Na] [Example 37, (R)-5-Difluoromethoxy-2-[(3-methoxy-4-trideuteriomethoxy-2-pyridinyl)methylsulfinyl]-1H-benzimidazole sodium salt]
% Σ Clint (R)-pantoprazole ([3]; Table 3, relative to (R)-pantoprazole): 21% | hepatocyte CLint (in vitro [11]): 5.5 µL/min/1e6 cells

O.O.O.[2H]C([2H])([2H])Oc1ccnc(C[S@@+]([O-])c2nc3cc(OC(F)F)ccc3[nH]2)c1OC.[Na] [Example 30, (R)-5-Difluoromethoxy-2-[(3-methoxy-4-trideuteriomethoxy-2-pyridinyl)methylsulfinyl]-1H-benzimidazole sodium salt trihydrate]
% Σ Clint (R)-pantoprazole ([3]; Table 2, relative to (R)-pantoprazole): 21%

From patent US7601737B2, “Isotopically substituted proton pump inhibitors” (priority 2005, dated 2009)
